Among the data in patent US20060223996A1, “IL-12 modulatory compounds” (Synta Pharmaceuticals Corp., priority 2004, published 2006) are IC50 values, retold here.

As a reminder, the IC50 is the point on the concentration scale where inhibition reaches its midpoint.

Molecules are shown by their SMILES. Some results are limits rather than exact numbers.

The experiment deals with IL-12. The experiment in a line: Human in vitro assay: inhibition of IL-12 production in IFNγ/LPS- or IFNγ/SAC-stimulated human PBMC or THP-1 cells (ELISA). The conditions noted are these: read-out: IC50 Range (representative in vitro IC50 data). It counts as cell-based. In a few lines:
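PBMC (5×10^5 cells/well) primed with IFNγ 30 U/mL for 22 h then LPS 1 μg/mL, or IFNγ 100 U/mL then SAC 0.01%; THP-1 primed with IFNγ 100 U/mL for 22 h then SAC 0.025%, with compound in 0.25% DMSO. Supernatant IL-12 p70/p40 measured by sandwich ELISA after 18 h; IC50 derived; viability by MTS.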
With `Cc1[nH]c2ccc(NC(=O)Nc3cc(OCCN4CCOCC4)nc(N4CCOCC4)n3)cc2c1C` [Compound 323, 1-(2,3-Dimethyl-1H-indol-5-yl)-3-[2-morpholin-4-yl-6-(2-morpholin-4-yl-ethoxy)-pyrimidin-4-yl]-urea], the IC50 is less than 1000 nM.

Consider `Cc1[nH]c2ccc(NC(=O)c3cc(N(C)C)nc(N4CCOCC4)n3)cc2c1C` [Compound 248, N-(2,3-dimethyl-1H-indol-5-yl)-6-(dimethylamino)-2-morpholino-pyrimidine-4-carboxamide], for which the IC50 was less than 1000 nM.

As for `Cc1[nH]c2ccc(NC(=O)c3cc(N4CCOCC4)nc(OCCc4ccccn4)n3)cc2c1C` [Compound 63, 6-Morpholin-4-yl-2-(2-pyridin-2-yl-ethoxy)-pyrimidine-4-carboxylic acid (2,3-dimethyl-1H-indol-5-yl)-amide], the IC50 is not below 1000 nM.

Turning to `CN1C(=O)c2ccc(NC(=O)c3cc(OCCN4CCOCC4)nc(N4CCOCC4)n3)cc2C1=O` [Compound 274, 2-Morpholin-4-yl-6-(2-morpholin-4-yl-ethoxy)-pyrimidine-4-carboxylic acid (2-methyl-1,3-dioxo-2,3-dihydro-1H-isoindol-5-yl)-amide], the IC50 was not below 1000 nM.

With `Cc1c(C)n(C)c2ccc(NC(=O)c3cc(N4CCOCC4)nc(N4CCOCC4)n3)cc12` [Compound 283, 2,6-Di-morpholin-4-yl-pyrimidine-4-carboxylic acid (1,2,3-trimethyl-1H-indol-5-yl)-amide], the IC50 was less than 1000 nM.

Turning to `COCCN(C)c1cc(C(=O)Nc2cccc(-c3nc(C)no3)c2)nc(N2CCOCC2)n1` [Compound 207, 6-((2-methoxyethyl)(methyl)amino)-N-(3-(3-methyl-1,2,4-oxadiazol-5-yl)phenyl)-2-morpholinopyrimidine-4-carboxamide], the half-inhibitory concentration (IC50) is not below 1000 nM.

Turning to `COCCN(C)c1cc(C(=O)Nc2cccc(-c3nncn3C)c2)nc(N2CCOCC2)n1` [Compound 208, 6-((2-methoxyethyl)(methyl)amino)-N-(3-(4-methyl-4H-1,2,4-triazol-3-yl)phenyl)-2-morpholinopyrimidine-4-carboxamide], the IC50 is not below 1000 nM.

As for `O=C(Nc1cccc(O)c1)C(=O)Nc1cc(N2CCOCC2)nc(OCCc2ccccn2)n1` [Compound 87, N-(3-Hydroxy-phenyl)-N′-[6-morpholin-4-yl-2-(2-pyridin-2-yl-ethoxy)-pyrimidin-4-yl]-oxalamide], the IC50 was not below 1000 nM.

Take `NS(=O)(=O)c1cccc(NC(=O)c2cc(OCCN3CCOCC3)nc(N3CCOCC3)n2)c1` [Compound 50, 2-Morpholin-4-yl-6-(2-morpholin-4-yl-ethoxy)-pyrimidine-4-carboxylic acid (3-sulfamoyl-phenyl)-amide]: the IC50 was not below 1000 nM.

On to `CC(=O)c1cccc(NC(=O)c2cc(OCCN3CCOCC3)nc(N3CCOCC3)n2)c1` [Compound 152, 2-Morpholin-4-yl-6-(2-morpholin-4-yl-ethoxy)-pyrimidine-4-carboxylic acid (3-acetyl-phenyl)-amide], for which the IC50 is not below 1000 nM.

Take `COCCN(C)c1cc(C(=O)Nc2cc(C)on2)nc(N2CCOCC2)n1` [Compound 237, 6-[(2-Methoxy-ethyl)-methyl-amino]-2-morpholin-4-yl-pyrimidine-4-carboxylic acid (5-methyl-isoxazol-3-yl)-amide]: the IC50 is not below 1000 nM.

Regarding `COCCN(C)c1cc(C(=O)Nc2cccc(C#CC(C)(C)O)c2)nc(N2CCOCC2)n1` [Compound 226, 6-[(2-Methoxy-ethyl)-methyl-amino]-2-morpholin-4-yl-pyrimidine-4-carboxylic acid [3-(3-hydroxy-3-methyl-but-1-ynyl)-phenyl]-amide], the IC50 is not below 1000 nM.

`COCCN(C)c1cc(C(=O)Nc2cc(N(C)C)ccc2F)nc(N2CCOCC2)n1` [Compound 212, N-(5-(dimethylamino)-2-fluorophenyl)-6-((2-methoxyethyl)(methyl)amino)-2-morpholinopyrimidine-4-carboxamide]: the concentration for half-maximal inhibition (IC50) is not below 1000 nM.

Turning to `Cc1[nH]c2ccc(NC(=O)c3cc(OCCS(C)(=O)=O)nc(N4CCOCC4)n3)cc2c1C` [Compound 249, N-(2,3-dimethyl-1H-indol-5-yl)-6-(2-(methylsulfonyl)ethoxy)-2-morpholinopyrimidine-4-carboxamide], the IC50 was not below 1000 nM.

Take `O=C(Nc1cccc(-n2ccnc2)c1)Nc1cc(OCCN2CCOCC2)nc(N2CCOCC2)n1` [Compound 328, 1-(3-Imidazol-1-yl-phenyl)-3-[2-morpholin-4-yl-6-(2-morpholin-4-yl-ethoxy)-pyrimidin-4-yl]-urea]: the IC50 is not below 1000 nM.

Regarding `Cc1nccc(-c2cccc(NC(=O)c3cc(OCCN4CCOCC4)nc(N4CCOCC4)n3)c2)n1` [Compound 170, 2-Morpholin-4-yl-6-(2-morpholin-4-yl-ethoxy)-pyrimidine-4-carboxylic acid [3-(2-methyl-pyrimidin-4-yl)-phenyl]-amide], the IC50 was not below 1000 nM.

With `COCCN(C)c1cc(C(=O)Nc2ccc(F)c(N(C)C)c2)nc(N2CCOCC2)n1` [Compound 215, N-(3-(dimethylamino)-4-fluorophenyl)-6-((2-methoxyethyl)(methyl)amino)-2-morpholinopyrimidine-4-carboxamide], the IC50 is less than 1000 nM.

Take `COCCN(C)c1cc(C(=O)NCCc2ccc(C)cc2)nc(N2CCOCC2)n1` [Compound 233, 6-[(2-Methoxy-ethyl)-methyl-amino]-2-morpholin-4-yl-pyrimidine-4-carboxylic acid (2-p-tolyl-ethyl)-amide]: the IC50 is not below 1000 nM.

Take `COCCN(C)c1cc(C(=O)Nc2cccc(C(F)(F)F)c2)nc(N2CCOCC2)n1` [Compound 209, 6-((2-methoxyethyl)(methyl)amino)-2-morpholino-N-(3-(trifluoromethyl)phenyl)pyrimidine-4-carboxamide]: the half-inhibitory concentration (IC50) was not below 1000 nM.

For the compound `O=C(c1cc(OCCN2CCOCC2)nc(N2CCOCC2)n1)n1ccc2ccccc21` [Compound 54, Indol-1-yl-[2-morpholin-4-yl-6-(2-morpholin-4-yl-ethoxy)-pyrimidin-4-yl]-methanone], the IC50 is not below 1000 nM.

As to `O=C(Nc1ccc2[nH]c3c(c2c1)CCCC3)c1cc(OCCN2CCOC2=O)nc(N2CCOCC2)n1` [Compound 223, 2-Morpholin-4-yl-6-[2-(2-oxo-oxazolidin-3-yl)-ethoxy]-pyrimidine-4-carboxylic acid (6,7,8,9-tetrahydro-5H-carbazol-3-yl)-amide], the concentration for half-maximal inhibition (IC50) was less than 1000 nM.

`CCNC(=O)CNc1cc(C(=O)Nc2ccc3[nH]c(C)c(C)c3c2)nc(N2CCOCC2)n1` [Compound 105, 6-(Ethylcarbamoylmethyl-amino)-2-morpholin-4-yl-pyrimidine-4-carboxylic acid (2,3-dimethyl-1H-indol-5-yl)-amide]: the IC50 was less than 1000 nM.

For `O=C(Nc1cc(OCCN2CCOCC2)nc(N2CCOCC2)n1)Nc1cc(-c2ccco2)n[nH]1` [Compound 144, 1-(5-Furan-2-yl-2H-pyrazol-3-yl)-3-[2-morpholin-4-yl-6-(2-morpholin-4-yl-ethoxy)-pyrimidin-4-yl]-urea], the IC50 was not below 1000 nM.

As for `O=C(Nc1cccc(-n2cccn2)c1)c1cc(OCC(=O)N2CCCCC2)nc(N2CCOCC2)n1` [Compound 115, 2-Morpholin-4-yl-6-(2-oxo-2-piperidin-1-yl-ethoxy)-pyrimidine-4-carboxylic acid (3-pyrazol-1-yl-phenyl)-amide], the IC50 is less than 1000 nM.

Regarding `COCCN(C)c1cc(C(=O)Nc2ccc3nc(C)c(C)nc3c2)nc(N2CCOCC2)n1` [Compound 241, 6-[(2-Methoxy-ethyl)-methyl-amino]-2-morpholin-4-yl-pyrimidine-4-carboxylic acid (2,3-dimethyl-quinoxalin-6-yl)-amide], the IC50 is not below 1000 nM.

For the compound `COCCN(C)c1cc(C(=O)Nc2nnc(C(C)(C)C)s2)nc(N2CCOCC2)n1` [Compound 236, 6-[(2-Methoxy-ethyl)-methyl-amino]-2-morpholin-4-yl-pyrimidine-4-carboxylic acid (5-tert-butyl-[1,3,4]thiadiazol-2-yl)-amide], the IC50 is not below 1000 nM.

For the compound `O=C(Nc1cc(OCCN2CCOCC2)nc(N2CCOCC2)n1)Nc1nnc(C2CC2)s1` [Compound 141, 1-(5-Cyclopropyl-[1,3,4]thiadiazol-2-yl)-3-[2-morpholin-4-yl-6-(2-morpholin-4-yl-ethoxy)-pyrimidin-4-yl]-urea], the IC50 is not below 1000 nM.

For the compound `CONc1cc(C(=O)Nc2cccc(N(C)C)c2)nc(N2CCOCC2)c1` [Compound 160, 4-Methoxyamino-6-morpholin-4-yl-pyridine-2-carboxylic acid (3-dimethylamino-phenyl)-amide], the IC50 is less than 1000 nM.

As for `O=C(Nc1cccc([N+](=O)[O-])c1)Nc1cc(OCCN2CCOCC2)nc(N2CCOCC2)n1` [Compound 128, 1-[2-Morpholin-4-yl-6-(2-morpholin-4-yl-ethoxy)-pyrimidin-4-yl]-3-(3-nitro-phenyl)-urea], the IC50 was not below 1000 nM.

For the compound `Cc1cccc(NC(=O)Nc2cc(OCCN3CCOCC3)nc(N3CCOCC3)n2)c1` [Compound 9, 1-[2-Morpholin-4-yl-6-(2-morpholin-4-yl-ethoxy)-pyrimidin-4-yl]-3-m-tolyl-urea], the IC50 was less than 1000 nM.

In the case of `CCc1c[nH]c2ccc(NC(=O)c3cc(N4CCC(C)CC4)nc(N4CCOCC4)n3)cc12` [Compound 178, 6-(4-Methyl-piperidin-1-yl)-2-morpholin-4-yl-pyrimidine-4-carboxylic acid (3-ethyl-1H-indol-5-yl)-amide], the IC50 was less than 1000 nM.

As for `Cc1ccc2cc(NC(=O)Nc3cc(OCCN4CCOCC4)nc(N4CCOCC4)n3)ccc2n1` [Compound 136, 1-(2-Methyl-quinolin-6-yl)-3-[2-morpholin-4-yl-6-(2-morpholin-4-yl-ethoxy)-pyrimidin-4-yl]-urea], the IC50 was less than 1000 nM.

In the case of `O=C(Nc1cccc(Br)c1)Nc1cc(N2CCOCC2)nc(OCCN2CCOCC2)n1` [Compound 118], the IC50 is less than 1000 nM.
